Earlier results in patent US20170189347A1, “TRANSDERMAL DELIVERY SYSTEM” (priority 2014, published 2017).

How the values were obtained:
[1] = not given; remark: listed apart in the source
MAO-B = MAO-B (Homo sapiens, UniProt P27338); conditions: in humans
MAO-A = MAO-A (Homo sapiens, UniProt P21397); conditions: in humans
Chain of MAO-A (P21397 whole entry): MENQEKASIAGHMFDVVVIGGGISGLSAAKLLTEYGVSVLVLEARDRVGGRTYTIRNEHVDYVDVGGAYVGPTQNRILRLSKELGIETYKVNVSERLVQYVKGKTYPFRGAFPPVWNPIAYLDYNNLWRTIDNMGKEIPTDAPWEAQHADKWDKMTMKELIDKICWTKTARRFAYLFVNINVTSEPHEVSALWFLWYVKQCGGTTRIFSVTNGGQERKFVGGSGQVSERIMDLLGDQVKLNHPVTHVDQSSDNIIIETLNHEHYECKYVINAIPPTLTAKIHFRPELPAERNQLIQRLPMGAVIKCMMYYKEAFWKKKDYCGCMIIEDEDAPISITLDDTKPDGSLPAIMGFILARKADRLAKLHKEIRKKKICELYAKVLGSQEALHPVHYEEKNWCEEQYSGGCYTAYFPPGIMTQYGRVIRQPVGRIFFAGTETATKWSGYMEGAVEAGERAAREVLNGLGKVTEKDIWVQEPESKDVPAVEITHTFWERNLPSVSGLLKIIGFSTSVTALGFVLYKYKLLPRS

Chain of MAO-B (P27338 whole entry): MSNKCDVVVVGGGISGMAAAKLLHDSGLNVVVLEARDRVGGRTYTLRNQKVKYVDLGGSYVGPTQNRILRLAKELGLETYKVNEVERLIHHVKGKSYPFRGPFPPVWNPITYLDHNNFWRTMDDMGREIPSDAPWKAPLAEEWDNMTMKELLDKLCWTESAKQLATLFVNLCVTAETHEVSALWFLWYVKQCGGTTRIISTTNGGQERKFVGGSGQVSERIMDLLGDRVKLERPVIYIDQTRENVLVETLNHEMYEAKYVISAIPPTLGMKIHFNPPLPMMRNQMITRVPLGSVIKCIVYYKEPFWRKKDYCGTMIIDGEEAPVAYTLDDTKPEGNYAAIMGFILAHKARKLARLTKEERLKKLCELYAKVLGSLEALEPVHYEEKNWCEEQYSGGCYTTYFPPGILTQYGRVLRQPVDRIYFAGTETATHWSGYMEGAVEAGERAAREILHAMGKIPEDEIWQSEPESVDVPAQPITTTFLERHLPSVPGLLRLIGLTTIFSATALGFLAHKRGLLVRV

Row | Compound | solubility in water | solubility in non-crosslinked acrylic copolymer PSA DT 87-4098 ([1]; DT 87-4098) [wt %] | solubility in non-crosslinked acrylic copolymer PSA DT 87-9088 ([1]; DT 87-9088) [wt %] | solubility in non-crosslinked acrylic copolymer PSA DT 87-9301 ([1]; DT 87-9301) [wt %] | solubility in polyisobutylene (PIB) PSA ([1]; PIB) | solubility in silicone PSA ([1]; silicone PSA) [wt %] | inhibition of MAO-B (MAO-B) | inhibition of MAO-A (MAO-A)
1 | C#CCN(C)[C@H](C)Cc1ccccc1 [selegiline] | 0.025 grams of drug per liter of water | – | – | – | – | – | – | –
2 | C#CCN[C@@H]1CCc2ccccc21 [rasagiline, (1R)-N-(prop-2-yn-1-yl)-2,3-dihydro-1H-inden-1-amine] | 0.025 grams of drug per liter of water | 54 | 111 | 78 | about 8 wt % | ~6 | selectively inhibit MAO-B | not to inhibit MAO-A
